# PubChem BioAssay (NCI)
#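 Assay format: 96-well plates, 48-hour exposure. Abbreviation: GI50, concentration required for 50% inhibition of growth. Definition used: TGI = concentration required for complete inhibition of growth.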
# How the values were obtained:
# Test in all cases: NCI anticancer screen, dose series, 48 h
# SF-268 CNS = system: SF-268 CNS
# CAKI-1 renal = system: CAKI-1 renal
# 786-0 renal = system: 786-0 renal
# SR leukemia = system: SR leukemia
# HS 578T breast = system: HS 578T breast
# OVCAR-8 ovarian = system: OVCAR-8 ovarian
# K-562 leukemia = system: K-562 leukemia
# TK-10 renal = system: TK-10 renal
# RPMI-8226 leukemia = system: RPMI-8226 leukemia
# MDA-MB-231 breast = system: MDA-MB-231 breast
Compound,TGI (SF-268 CNS),TGI (CAKI-1 renal),TGI (786-0 renal),TGI (SR leukemia),TGI (HS 578T breast),TGI (OVCAR-8 ovarian),TGI (K-562 leukemia),TGI (TK-10 renal),TGI (RPMI-8226 leukemia),TGI (MDA-MB-231 breast),GI50 (SF-268 CNS),GI50 (CAKI-1 renal),GI50 (786-0 renal),GI50 (SR leukemia),GI50 (HS 578T breast),GI50 (OVCAR-8 ovarian),GI50 (K-562 leukemia),GI50 (TK-10 renal),GI50 (RPMI-8226 leukemia),GI50 (MDA-MB-231 breast)
COc1cccc(C2c3cc4c(cc3OC(N3CCCC3)C2C)OCO4)c1O (centres undefined),70100 nM,68300 nM,> 100000 nM,25000 nM,18500 nM,42000 nM,57800 nM,40100 nM,27900 nM,45800 nM,,,,,,,,,,
Cn1c2ccc(Br)cc2c2c3c(c4c5ccccc5[nH]c4c21)C(=O)N(O)C3=O,720 nM,885 nM,421 nM,2640 nM,1040 nM,683 nM,,1420 nM,672 nM,607 nM,76.3 nM,220 nM,174 nM,22.8 nM,291 nM,149 nM,168 nM,655 nM,151 nM,210 nM
Cc1cccc(C)c1NC(=O)Nc1ccc(S(N)(=O)=O)cc1,> 100000 nM,> 100000 nM,> 100000 nM,> 100000 nM,> 100000 nM,> 100000 nM,> 100000 nM,> 100000 nM,> 100000 nM,> 100000 nM,,,,,,,,,,
